Drawing on ChEMBL document CHEMBL3991601, “The target landscape of clinical kinase drugs” (Science, 2017), this text covers Kd for 13 compounds.

Active and inactive are the calls of the source. Where only a bound is given, the exact number is not on record here.

One experiment deals with T1, UMP-CMP kinase (Homo sapiens, UniProt P30085).
T1 sequence (P30085 whole entry): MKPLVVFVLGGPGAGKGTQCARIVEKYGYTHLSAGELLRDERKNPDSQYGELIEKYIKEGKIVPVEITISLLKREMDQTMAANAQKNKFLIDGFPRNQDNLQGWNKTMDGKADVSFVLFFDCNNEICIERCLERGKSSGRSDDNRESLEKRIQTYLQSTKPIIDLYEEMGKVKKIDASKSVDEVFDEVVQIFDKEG

Experiment [1] has as its target Cyclin-dependent kinase 17 (Homo sapiens, UniProt Q00537).
Experiment [2] deals with Dual specificity testis-specific protein kinase 2 (Homo sapiens, UniProt Q96S53).
Experiment [3] concerns the target PAS domain-containing serine/threonine-protein kinase (Homo sapiens, UniProt Q96RG2).
The target in experiment [4] is Dual specificity protein kinase CLK3 (Homo sapiens, UniProt P49761). The experiment is classed as subcellular, K-562, COLO 205, SK-N-BE(2) and MV-4-11, Cell lysate. As to conditions: read-out: Kd apparent.
Experiment [5] has as its target Proto-oncogene tyrosine-protein kinase receptor Ret (Homo sapiens, UniProt P07949).
Experiment [6] addresses T2, ATP-dependent RNA helicase DHX30 (Homo sapiens, UniProt Q7L2E3).
T2 sequence (Q7L2E3 whole entry): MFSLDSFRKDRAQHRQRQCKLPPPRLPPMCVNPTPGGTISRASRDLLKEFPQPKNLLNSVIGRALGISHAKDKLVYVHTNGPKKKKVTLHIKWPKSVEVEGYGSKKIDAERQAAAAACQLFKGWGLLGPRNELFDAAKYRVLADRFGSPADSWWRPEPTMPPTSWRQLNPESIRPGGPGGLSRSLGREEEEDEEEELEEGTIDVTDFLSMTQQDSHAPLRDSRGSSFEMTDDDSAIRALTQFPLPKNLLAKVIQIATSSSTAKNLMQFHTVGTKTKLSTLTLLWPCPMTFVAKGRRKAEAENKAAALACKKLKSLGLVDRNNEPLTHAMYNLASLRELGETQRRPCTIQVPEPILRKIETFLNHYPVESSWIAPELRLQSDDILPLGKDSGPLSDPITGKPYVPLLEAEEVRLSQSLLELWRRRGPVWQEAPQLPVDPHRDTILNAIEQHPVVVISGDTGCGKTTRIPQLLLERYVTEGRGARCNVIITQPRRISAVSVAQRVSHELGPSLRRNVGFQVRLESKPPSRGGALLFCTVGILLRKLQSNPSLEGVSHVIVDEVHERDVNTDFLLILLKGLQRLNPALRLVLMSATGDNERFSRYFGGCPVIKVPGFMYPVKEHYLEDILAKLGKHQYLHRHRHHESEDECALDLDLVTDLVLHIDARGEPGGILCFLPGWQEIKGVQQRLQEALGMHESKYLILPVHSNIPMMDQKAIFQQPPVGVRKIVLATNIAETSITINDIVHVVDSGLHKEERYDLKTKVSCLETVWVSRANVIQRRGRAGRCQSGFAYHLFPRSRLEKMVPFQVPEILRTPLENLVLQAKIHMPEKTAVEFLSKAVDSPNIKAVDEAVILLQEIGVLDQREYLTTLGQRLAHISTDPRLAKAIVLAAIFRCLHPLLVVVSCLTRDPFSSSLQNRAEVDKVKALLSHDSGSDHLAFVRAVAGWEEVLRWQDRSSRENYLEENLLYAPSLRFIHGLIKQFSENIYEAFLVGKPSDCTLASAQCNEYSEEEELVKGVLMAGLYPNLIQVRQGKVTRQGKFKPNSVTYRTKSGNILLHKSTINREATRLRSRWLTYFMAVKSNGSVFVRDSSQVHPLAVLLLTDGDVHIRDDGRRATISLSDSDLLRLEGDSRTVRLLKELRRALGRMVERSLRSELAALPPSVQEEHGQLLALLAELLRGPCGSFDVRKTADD

The target in experiment [7] is G protein-coupled receptor kinase 6 (Homo sapiens, UniProt P43250).
For experiment [8], the target named is T3, Long-chain-fatty-acid--CoA ligase 5 (Homo sapiens, UniProt Q9ULC5).
T3 sequence (Q9ULC5 whole entry): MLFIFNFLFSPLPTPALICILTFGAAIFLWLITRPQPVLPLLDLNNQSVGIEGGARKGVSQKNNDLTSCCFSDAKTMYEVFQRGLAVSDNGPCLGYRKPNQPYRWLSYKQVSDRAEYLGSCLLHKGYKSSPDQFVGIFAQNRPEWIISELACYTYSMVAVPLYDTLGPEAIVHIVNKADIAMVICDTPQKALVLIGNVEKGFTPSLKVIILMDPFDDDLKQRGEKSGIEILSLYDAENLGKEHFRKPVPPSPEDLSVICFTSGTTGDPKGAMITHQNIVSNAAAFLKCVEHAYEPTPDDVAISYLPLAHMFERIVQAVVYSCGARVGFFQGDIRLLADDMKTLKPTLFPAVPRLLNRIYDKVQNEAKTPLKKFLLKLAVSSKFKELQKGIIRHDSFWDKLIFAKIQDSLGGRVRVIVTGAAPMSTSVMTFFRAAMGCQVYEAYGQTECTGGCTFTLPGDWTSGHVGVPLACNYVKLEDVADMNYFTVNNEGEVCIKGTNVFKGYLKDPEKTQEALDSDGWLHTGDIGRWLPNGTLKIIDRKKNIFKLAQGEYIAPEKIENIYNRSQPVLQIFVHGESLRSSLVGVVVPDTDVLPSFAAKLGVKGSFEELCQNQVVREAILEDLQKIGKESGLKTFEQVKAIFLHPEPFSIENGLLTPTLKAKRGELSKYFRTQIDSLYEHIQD

Experiment [9] deals with Serine/threonine-protein kinase pim-2 (Homo sapiens, UniProt Q9P1W9).
Note: in the data inactive means no Kd found up to 30 µM.

Sequence of Serine/threonine-protein kinase pim-2 (Q9P1W9 whole entry): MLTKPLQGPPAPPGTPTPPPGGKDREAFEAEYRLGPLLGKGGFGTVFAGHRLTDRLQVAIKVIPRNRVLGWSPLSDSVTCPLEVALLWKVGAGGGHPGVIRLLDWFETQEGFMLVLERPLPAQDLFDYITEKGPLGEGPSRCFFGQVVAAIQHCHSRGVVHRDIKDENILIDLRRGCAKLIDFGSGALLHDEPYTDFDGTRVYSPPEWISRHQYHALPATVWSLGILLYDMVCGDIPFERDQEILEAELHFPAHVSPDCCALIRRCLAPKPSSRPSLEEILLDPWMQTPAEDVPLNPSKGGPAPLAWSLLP
Sequence of Dual specificity testis-specific protein kinase 2 (Q96S53 whole entry, the tested form may be a part): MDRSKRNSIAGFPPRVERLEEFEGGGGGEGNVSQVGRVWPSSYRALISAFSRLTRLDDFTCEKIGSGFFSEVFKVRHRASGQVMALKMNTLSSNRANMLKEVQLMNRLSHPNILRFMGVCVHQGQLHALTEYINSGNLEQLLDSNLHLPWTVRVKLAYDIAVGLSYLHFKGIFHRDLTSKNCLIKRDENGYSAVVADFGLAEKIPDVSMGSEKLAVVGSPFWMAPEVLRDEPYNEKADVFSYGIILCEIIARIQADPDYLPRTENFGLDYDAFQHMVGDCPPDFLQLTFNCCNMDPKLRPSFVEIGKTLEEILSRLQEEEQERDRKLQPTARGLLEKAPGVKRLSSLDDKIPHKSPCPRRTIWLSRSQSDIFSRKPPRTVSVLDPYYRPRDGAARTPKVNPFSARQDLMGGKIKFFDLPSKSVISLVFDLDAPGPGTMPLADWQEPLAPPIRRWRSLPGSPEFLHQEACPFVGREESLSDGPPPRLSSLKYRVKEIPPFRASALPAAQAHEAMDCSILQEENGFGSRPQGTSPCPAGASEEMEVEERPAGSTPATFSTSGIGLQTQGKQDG
Sequence of Dual specificity protein kinase CLK3 (P49761 whole entry): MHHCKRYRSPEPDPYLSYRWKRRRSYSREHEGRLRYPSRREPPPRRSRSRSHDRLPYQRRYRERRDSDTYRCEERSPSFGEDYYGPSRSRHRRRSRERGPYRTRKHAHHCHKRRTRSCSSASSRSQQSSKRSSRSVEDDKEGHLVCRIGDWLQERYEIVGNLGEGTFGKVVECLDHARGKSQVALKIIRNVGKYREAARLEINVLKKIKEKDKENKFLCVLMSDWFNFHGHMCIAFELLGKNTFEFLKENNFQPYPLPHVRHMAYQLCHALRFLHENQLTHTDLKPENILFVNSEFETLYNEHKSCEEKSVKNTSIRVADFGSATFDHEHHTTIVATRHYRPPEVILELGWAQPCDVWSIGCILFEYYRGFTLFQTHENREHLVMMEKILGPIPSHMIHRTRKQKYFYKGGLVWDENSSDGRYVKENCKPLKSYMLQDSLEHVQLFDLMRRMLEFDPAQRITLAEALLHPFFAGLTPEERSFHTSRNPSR
Sequence of Cyclin-dependent kinase 17 (Q00537 whole entry): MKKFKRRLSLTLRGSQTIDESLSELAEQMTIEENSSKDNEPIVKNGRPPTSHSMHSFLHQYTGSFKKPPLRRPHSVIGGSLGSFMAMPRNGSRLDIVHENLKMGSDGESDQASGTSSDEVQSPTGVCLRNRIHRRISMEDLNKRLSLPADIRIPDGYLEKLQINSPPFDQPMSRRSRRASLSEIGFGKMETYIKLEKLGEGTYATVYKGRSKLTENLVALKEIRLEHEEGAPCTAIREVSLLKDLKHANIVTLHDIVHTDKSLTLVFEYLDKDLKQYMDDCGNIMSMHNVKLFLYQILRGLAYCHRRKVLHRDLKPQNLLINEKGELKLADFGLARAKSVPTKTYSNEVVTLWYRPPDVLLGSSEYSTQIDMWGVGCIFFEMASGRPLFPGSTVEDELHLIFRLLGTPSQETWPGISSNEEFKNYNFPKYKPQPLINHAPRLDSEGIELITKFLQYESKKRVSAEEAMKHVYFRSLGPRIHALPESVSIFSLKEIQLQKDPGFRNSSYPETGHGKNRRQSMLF
Sequence of PAS domain-containing serine/threonine-protein kinase (Q96RG2 whole entry, the tested form may be a part): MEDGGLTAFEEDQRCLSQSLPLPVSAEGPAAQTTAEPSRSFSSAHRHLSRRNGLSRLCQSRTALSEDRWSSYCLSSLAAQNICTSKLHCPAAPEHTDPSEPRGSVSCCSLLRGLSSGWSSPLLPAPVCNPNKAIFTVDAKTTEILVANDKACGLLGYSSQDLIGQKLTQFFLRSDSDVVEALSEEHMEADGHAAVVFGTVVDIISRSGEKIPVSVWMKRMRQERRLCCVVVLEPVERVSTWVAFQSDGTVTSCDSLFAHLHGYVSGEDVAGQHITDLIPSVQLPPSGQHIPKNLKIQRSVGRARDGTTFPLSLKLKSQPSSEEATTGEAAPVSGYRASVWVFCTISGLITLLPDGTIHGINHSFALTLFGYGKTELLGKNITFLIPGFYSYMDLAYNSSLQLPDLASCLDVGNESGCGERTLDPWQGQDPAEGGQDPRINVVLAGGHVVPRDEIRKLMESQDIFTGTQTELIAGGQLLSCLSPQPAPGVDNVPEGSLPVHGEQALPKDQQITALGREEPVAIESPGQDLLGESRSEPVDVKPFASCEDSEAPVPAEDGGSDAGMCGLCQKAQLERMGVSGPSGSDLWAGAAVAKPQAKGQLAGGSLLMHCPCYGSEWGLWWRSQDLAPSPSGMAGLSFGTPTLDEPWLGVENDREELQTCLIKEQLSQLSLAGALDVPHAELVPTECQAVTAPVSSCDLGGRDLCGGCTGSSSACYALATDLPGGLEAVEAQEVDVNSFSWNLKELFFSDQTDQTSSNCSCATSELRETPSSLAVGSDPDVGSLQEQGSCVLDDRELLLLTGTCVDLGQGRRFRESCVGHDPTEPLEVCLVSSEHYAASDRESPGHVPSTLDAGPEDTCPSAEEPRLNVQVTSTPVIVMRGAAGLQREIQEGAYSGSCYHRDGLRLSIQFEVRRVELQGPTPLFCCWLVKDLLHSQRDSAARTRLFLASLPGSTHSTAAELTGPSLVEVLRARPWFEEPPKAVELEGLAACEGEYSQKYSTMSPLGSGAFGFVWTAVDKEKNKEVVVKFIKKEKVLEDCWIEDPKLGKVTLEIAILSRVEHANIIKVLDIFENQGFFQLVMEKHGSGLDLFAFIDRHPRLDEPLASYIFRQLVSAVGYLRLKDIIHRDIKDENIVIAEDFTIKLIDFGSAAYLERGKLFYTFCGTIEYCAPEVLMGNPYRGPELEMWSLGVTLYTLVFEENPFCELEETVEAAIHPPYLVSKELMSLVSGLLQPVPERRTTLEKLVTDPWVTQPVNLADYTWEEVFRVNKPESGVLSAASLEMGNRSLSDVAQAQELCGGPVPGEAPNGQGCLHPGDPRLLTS
Sequence of G protein-coupled receptor kinase 6 (P43250 whole entry): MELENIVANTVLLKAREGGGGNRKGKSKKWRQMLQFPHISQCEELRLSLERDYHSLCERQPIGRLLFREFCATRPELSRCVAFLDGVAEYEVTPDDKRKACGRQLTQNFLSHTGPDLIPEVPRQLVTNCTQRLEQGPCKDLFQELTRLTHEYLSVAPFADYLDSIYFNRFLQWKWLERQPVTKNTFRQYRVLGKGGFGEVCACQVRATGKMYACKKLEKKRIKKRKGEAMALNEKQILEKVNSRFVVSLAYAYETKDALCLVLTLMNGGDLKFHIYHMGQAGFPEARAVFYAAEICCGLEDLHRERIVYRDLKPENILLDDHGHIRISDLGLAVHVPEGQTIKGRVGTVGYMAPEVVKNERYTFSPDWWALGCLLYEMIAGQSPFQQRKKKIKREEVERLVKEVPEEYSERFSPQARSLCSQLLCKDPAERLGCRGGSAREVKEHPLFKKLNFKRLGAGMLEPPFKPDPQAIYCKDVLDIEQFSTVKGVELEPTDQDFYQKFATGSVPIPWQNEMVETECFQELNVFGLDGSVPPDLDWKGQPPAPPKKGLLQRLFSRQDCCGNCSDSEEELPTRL
Sequence of Proto-oncogene tyrosine-protein kinase receptor Ret (P07949 whole entry): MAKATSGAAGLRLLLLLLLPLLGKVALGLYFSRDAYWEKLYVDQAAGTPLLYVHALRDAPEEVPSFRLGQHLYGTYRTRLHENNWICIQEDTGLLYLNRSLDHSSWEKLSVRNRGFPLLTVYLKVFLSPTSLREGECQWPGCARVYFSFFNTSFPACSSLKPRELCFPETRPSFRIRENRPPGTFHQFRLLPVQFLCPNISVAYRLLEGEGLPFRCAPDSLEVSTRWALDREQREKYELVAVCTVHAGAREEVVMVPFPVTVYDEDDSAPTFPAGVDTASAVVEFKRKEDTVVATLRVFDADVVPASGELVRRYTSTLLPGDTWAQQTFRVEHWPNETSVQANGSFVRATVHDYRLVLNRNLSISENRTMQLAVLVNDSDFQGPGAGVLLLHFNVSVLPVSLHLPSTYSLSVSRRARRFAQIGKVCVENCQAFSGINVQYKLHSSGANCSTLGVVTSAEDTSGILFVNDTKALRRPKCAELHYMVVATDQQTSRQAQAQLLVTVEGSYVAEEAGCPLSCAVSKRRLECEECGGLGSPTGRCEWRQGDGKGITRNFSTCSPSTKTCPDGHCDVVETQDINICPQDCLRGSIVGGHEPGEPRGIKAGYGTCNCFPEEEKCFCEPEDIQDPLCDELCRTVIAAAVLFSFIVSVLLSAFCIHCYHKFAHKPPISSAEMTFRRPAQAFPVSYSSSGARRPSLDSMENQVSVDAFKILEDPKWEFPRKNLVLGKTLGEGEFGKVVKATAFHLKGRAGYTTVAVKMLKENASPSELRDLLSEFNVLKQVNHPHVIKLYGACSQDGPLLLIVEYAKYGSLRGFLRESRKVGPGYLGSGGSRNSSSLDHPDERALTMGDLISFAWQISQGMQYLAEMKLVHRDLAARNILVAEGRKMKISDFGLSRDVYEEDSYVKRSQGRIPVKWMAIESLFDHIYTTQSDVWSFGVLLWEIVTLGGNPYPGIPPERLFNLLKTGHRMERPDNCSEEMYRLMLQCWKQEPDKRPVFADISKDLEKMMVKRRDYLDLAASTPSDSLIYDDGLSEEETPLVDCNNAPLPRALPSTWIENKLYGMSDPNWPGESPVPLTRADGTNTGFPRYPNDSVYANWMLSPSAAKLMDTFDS

On to `CO[C@H]1C[C@@H]2CC[C@@H](C)[C@@](O)(O2)C(=O)C(=O)N2CCCC[C@H]2C(=O)O[C@H]([C@H](C)C[C@@H]2CC[C@@H](OCCO)[C@H](OC)C2)CC(=O)[C@H](C)/C=C(\C)[C@@H](O)[C@@H](OC)C(=O)[C@H](C)C[C@H](C)/C=C/C=C/C=C/1C` [EVEROLIMUS], for which the Kd (on UMP-CMP kinase; in experiment [1]; in experiment [2]; in [3]; in experiment [4]; in [5]) was > 30 µM (inactive) throughout. In addition, the Kd in experiment [6], in experiment [7] and in experiment [8] was > 30 µM (inactive) throughout.
Consider `C[C@@H]1CN(Cc2ccc(F)cc2)[C@@H](C)CN1C(=O)c1cc2c(C(=O)C(=O)N(C)C)cn(C)c2cc1Cl` [TALMAPIMOD], for which the Kd (at UMP-CMP kinase; in experiment [1]; in experiment [2]; in experiment [3]; in experiment [4]; in [5]) was > 30 µM (inactive) throughout. Besides, the Kd in [6], in [7] and in experiment [8] was > 30 µM (inactive) in each case.
In the case of `Cn1cc(-c2ccc3nnc(C(F)(F)c4ccc5ncccc5c4)n3n2)cn1` [JNJ-38877605], the Kd in [1], in experiment [2], in [3], in experiment [4], in [5] and in experiment [6] was > 30 µM (inactive) each time. In addition, the Kd in experiment [9], in experiment [7] and in experiment [8] was > 30 µM (inactive) throughout.
Regarding `Cc1c(F)cc(C(=O)NC2CC2)cc1-c1ccc(C(=O)NCC(C)(C)C)cn1` [LOSMAPIMOD], the Kd in experiment [1], in experiment [2], in [3], in [4], in [5] and in experiment [6] was > 30 µM (inactive) in each case. Besides, the Kd in experiment [9] is > 30 µM (inactive); in experiment [7], > 30 µM (inactive); in experiment [8], 1.69 µM.
As for `Cc1cc(Nc2cc(N3CCN(C)CC3)nc(/C=C/c3ccccc3)n2)n[nH]1` [ENMD-2076], the Kd (on UMP-CMP kinase; in [2]; in experiment [3]; in experiment [4]; in [6]; in experiment [7]) was > 30 µM (inactive) in each case. The Kd in experiment [8] was > 30 µM (inactive).
Take `CN1CCC(COc2cnc(-c3cccc(Cn4nc(-c5cccc(C#N)c5)ccc4=O)c3)nc2)CC1` [TEPOTINIB]: the Kd (at UMP-CMP kinase; in [1]; in experiment [2]; in experiment [3]; in [4]; in experiment [5]) was > 30 µM (inactive) each time. For the same compound, the Kd in experiment [6], in [7] and in experiment [8] was > 30 µM (inactive) in each case.
`O=C(O)[C@]1(Cc2cccc(Nc3nccs3)n2)CC[C@@H](Oc2cccc(Cl)c2F)CC1` [MK-5108]: the Kd is > 30 µM (inactive) at UMP-CMP kinase; > 30 µM (inactive) in experiment [1]; > 30 µM (inactive) in experiment [3]; > 30 µM (inactive) in experiment [4]; 0.388 µM (active) in [5]; > 30 µM (inactive) in experiment [6]. Besides, the Kd in [9] was > 30 µM (inactive).
Turning to `COc1cc(OC)c(/C=C/S(=O)(=O)Cc2ccc(OC)c(NCC(=O)O)c2)c(OC)c1` [RIGOSERTIB], the Kd in experiment [1] is > 30 µM (inactive); in [2] it was > 30 µM (inactive); in experiment [3], > 30 µM (inactive); in experiment [4], 0.04 µM; in [5] it was > 30 µM (inactive); in experiment [6] it was > 30 µM (inactive). Besides, the Kd in experiment [9] and in experiment [7] was > 30 µM (inactive) throughout.
In the case of `CC[C@@H]1C(=O)N(C)c2cnc(Nc3ccc(C(=O)N[C@H]4CC[C@H](N5CCN(CC6CC6)CC5)CC4)cc3OC)nc2N1C(C)C` [VOLASERTIB], the Kd (at UMP-CMP kinase; in experiment [1]; in experiment [2]; in experiment [3]; in [4]; in experiment [5]) was > 30 µM (inactive) each time. For the same compound, the Kd in [6], in [7] and in [8] was > 30 µM (inactive) each time.
For `OCCn1cc(-c2cnc3nnn(Cc4ccc5ncccc5c4)c3n2)cn1` [PF-04217903], the Kd (at UMP-CMP kinase; in experiment [1]; in [3]; in [4]; in experiment [6]; in experiment [9]) was > 30 µM (inactive) in each case. The Kd in experiment [8] was > 30 µM (inactive).
As to `COC(=O)N[C@@H](C)CNc1nccc(-c2cn(C(C)C)nc2-c2cc(Cl)cc(NS(C)(=O)=O)c2F)n1` [ENCORAFENIB], the Kd (on UMP-CMP kinase; in experiment [1]; in experiment [2]; in [3]; in experiment [4]; in experiment [5]) was > 30 µM (inactive) in each case. The Kd in experiment [6] and in experiment [7] was > 30 µM (inactive) throughout.
Turning to `CNC(=O)CN1CCC(Oc2cc3c(Nc4cccc(Cl)c4F)ncnc3cc2OC)CC1` [SAPITINIB], the Kd in experiment [1] is > 30 µM (inactive); in experiment [2], > 30 µM (inactive); in experiment [3] it was > 30 µM (inactive); in experiment [4], > 30 µM (inactive); in experiment [5], 0.39 µM (active); in [9] it was > 30 µM (inactive). Besides, the Kd in experiment [7] and in experiment [8] was > 30 µM (inactive) in each case.
As for `CNS(=O)(=O)Nc1nccc(Cc2c(C)c3ccc(Oc4ncccn4)cc3oc2=O)c1F` [AVUTOMETINIB], the Kd in [1], in experiment [2], in experiment [3], in experiment [4], in [5] and in experiment [6] was > 30 µM (inactive) each time. In addition, the Kd in experiment [9] is > 30 µM (inactive).
